In ChEMBL document CHEMBL3885881, “DrugMatrix”:

Organism: Rattus norvegicus
Test: DrugMatrix - Regimen: Daily Repeat
Format: toxicity, organism-based, Sprague-Dawley
Set-up: regimen Daily Repeat, gender Male, age 6-8 weeks
Settings: in vivo, po, 2 mg/kg, route oral GAVAGE, dose level High, vehicle 100 % WATER; for ABSOLUTE BASOPHIL / ABSOLUTE EOSINOPHIL / ABSOLUTE LYMPHOCYTE / ABSOLUTE MONOCYTE / ABSOLUTE SEGMENTED NEUTROPHIL / BASOPHIL / EOSINOPHIL / ERYTHROCYTE COUNT / HEMATOCRIT / HEMOGLOBIN / LEUKOCYTE COUNT / LYMPHOCYTE / MEAN CORPUSCULAR HEMOGLOBIN / MEAN CORPUSCULAR HEMOGLOBIN CONCENTRATION / MEAN CORPUSCULAR VOLUME / MONOCYTE / NEUTROPHIL / NUCLEATED RED BLOOD CELLS / PLATELET COUNT: tissue Blood
[1] = 72 h, tissue Plasma, time 3 day
[2] = 120 h, tissue Plasma, time 5 day

O=[Se]([O-])[O-].[Na+].[Na+] [SODIUM SELENITE]
ABSOLUTE BASOPHIL (72 h, time 3 day): 0 CELLS/uL
ABSOLUTE EOSINOPHIL (72 h, time 3 day): 0 CELLS/uL
ABSOLUTE LYMPHOCYTE (72 h, time 3 day): 12300.67 CELLS/uL
ABSOLUTE MONOCYTE (72 h, time 3 day): 763.67 CELLS/uL
ABSOLUTE SEGMENTED NEUTROPHIL (72 h, time 3 day): 2435.67 CELLS/uL
BASOPHIL (72 h, time 3 day): 0%
EOSINOPHIL (72 h, time 3 day): 0%
ERYTHROCYTE COUNT (72 h, time 3 day): 6.2 x10E6/uL
HEMATOCRIT (72 h, time 3 day): 38.47%
HEMOGLOBIN (72 h, time 3 day): 14.1 G/DL
LEUKOCYTE COUNT (72 h, time 3 day): 15.5 x10E3/uL
LYMPHOCYTE (72 h, time 3 day): 80%
MEAN CORPUSCULAR HEMOGLOBIN (72 h, time 3 day): 22.77 pg
MEAN CORPUSCULAR HEMOGLOBIN CONCENTRATION (72 h, time 3 day): 36.7 G/DL
MEAN CORPUSCULAR VOLUME (72 h, time 3 day): 62.07 fL
MONOCYTE (72 h, time 3 day): 5%
NEUTROPHIL (72 h, time 3 day): 15%
NUCLEATED RED BLOOD CELLS (72 h, time 3 day): 0 /100WBC
PLATELET COUNT (72 h, time 3 day): 701.33 x10E3/uL
ALANINE AMINOTRANSFERASE [1]: 84.33 u/L
ALBUMIN [1]: 4.57 G/DL
ALKALINE PHOSPHATASE [1]: 506.33 u/L
ASPARTATE AMINOTRANSFERASE [1]: 143.67 u/L
BLOOD UREA NITROGEN [1]: 15.67 mg/dL
CARBON DIOXIDE [1]: 24 mmol/L
CHLORIDE [1]: 102.33 MEQ/L
CHOLESTEROL [1]: 121.33 mg/dL
CREATININE [1]: 0.18 mg/dL
GLUCOSE [1]: 145.67 mg/dL
LACTATE DEHYDROGENASE [1]: 321.67 u/L
LIPASE [1]: 9 u/L
PHOSPHORUS [1]: 12.8 mg/dL
POTASSIUM [1]: 5.73 MEQ/L
SODIUM [1]: 146 MEQ/L
TOTAL BILIRUBIN [1]: 0.23 mg/dL
TOTAL PROTEIN [1]: 6.53 G/DL
URIC ACID [1]: 1.43 mg/dL
ABSOLUTE BASOPHIL (120 h, time 5 day): 0 CELLS/uL
ABSOLUTE EOSINOPHIL (120 h, time 5 day): 0 CELLS/uL
ABSOLUTE LYMPHOCYTE (120 h, time 5 day): 10507.33 CELLS/uL
ABSOLUTE MONOCYTE (120 h, time 5 day): 251 CELLS/uL
ABSOLUTE SEGMENTED NEUTROPHIL (120 h, time 5 day): 875 CELLS/uL
BASOPHIL (120 h, time 5 day): 0%
EOSINOPHIL (120 h, time 5 day): 0%
ERYTHROCYTE COUNT (120 h, time 5 day): 5.43 x10E6/uL
HEMATOCRIT (120 h, time 5 day): 33.4%
HEMOGLOBIN (120 h, time 5 day): 12.4 G/DL
LEUKOCYTE COUNT (120 h, time 5 day): 11.63 x10E3/uL
LYMPHOCYTE (120 h, time 5 day): 90.33%
MEAN CORPUSCULAR HEMOGLOBIN (120 h, time 5 day): 22.87 pg
MEAN CORPUSCULAR HEMOGLOBIN CONCENTRATION (120 h, time 5 day): 37.17 G/DL
MEAN CORPUSCULAR VOLUME (120 h, time 5 day): 61.53 fL
MONOCYTE (120 h, time 5 day): 2%
NEUTROPHIL (120 h, time 5 day): 7.67%
NUCLEATED RED BLOOD CELLS (120 h, time 5 day): 0 /100WBC
PLATELET COUNT (120 h, time 5 day): 896.33 x10E3/uL
ALANINE AMINOTRANSFERASE [2]: 56.33 u/L
ALBUMIN [2]: 4.77 G/DL
ALKALINE PHOSPHATASE [2]: 396 u/L
ASPARTATE AMINOTRANSFERASE [2]: 80.67 u/L
BLOOD UREA NITROGEN [2]: 12.33 mg/dL
CARBON DIOXIDE [2]: 33.33 mmol/L
CHLORIDE [2]: 98.33 MEQ/L
CHOLESTEROL [2]: 86.33 mg/dL
CREATININE [2]: 0.14 mg/dL
GLUCOSE [2]: 141 mg/dL
LACTATE DEHYDROGENASE [2]: 84 u/L
LIPASE [2]: 8.33 u/L
PHOSPHORUS [2]: 13.2 mg/dL
POTASSIUM [2]: 6.3 MEQ/L
SODIUM [2]: 145.1 MEQ/L
TOTAL BILIRUBIN [2]: 0.2 mg/dL
TOTAL PROTEIN [2]: 6.87 G/DL
